Laboratory results taken from ChEMBL document CHEMBL2074311, “ATP-dependent para-aminohippurate transport by apical multidrug resistance protein MRP2” (Kidney Int, 2000).
pIC50: −log10 of the molar value.

How the values were obtained:
[1] = target: T1, ATP-binding cassette sub-family C member 2 (Homo sapiens, UniProt Q92887); experiment: TP_TRANSPORTER: uptake in membrane vesicles from MRP2-expressing HEK cells; type: functional, cell membranes, Membrane vesicle; details: hek293
[2] = target: T1, ATP-binding cassette sub-family C member 2; experiment: TP_TRANSPORTER: inhibition of PAH uptake (PAH: 0.1uM) in membrane vesicles from MRP2-expressing HEK cells; type: functional, cell membranes, HEK293, Membrane vesicle

T1 sequence (Q92887 whole entry): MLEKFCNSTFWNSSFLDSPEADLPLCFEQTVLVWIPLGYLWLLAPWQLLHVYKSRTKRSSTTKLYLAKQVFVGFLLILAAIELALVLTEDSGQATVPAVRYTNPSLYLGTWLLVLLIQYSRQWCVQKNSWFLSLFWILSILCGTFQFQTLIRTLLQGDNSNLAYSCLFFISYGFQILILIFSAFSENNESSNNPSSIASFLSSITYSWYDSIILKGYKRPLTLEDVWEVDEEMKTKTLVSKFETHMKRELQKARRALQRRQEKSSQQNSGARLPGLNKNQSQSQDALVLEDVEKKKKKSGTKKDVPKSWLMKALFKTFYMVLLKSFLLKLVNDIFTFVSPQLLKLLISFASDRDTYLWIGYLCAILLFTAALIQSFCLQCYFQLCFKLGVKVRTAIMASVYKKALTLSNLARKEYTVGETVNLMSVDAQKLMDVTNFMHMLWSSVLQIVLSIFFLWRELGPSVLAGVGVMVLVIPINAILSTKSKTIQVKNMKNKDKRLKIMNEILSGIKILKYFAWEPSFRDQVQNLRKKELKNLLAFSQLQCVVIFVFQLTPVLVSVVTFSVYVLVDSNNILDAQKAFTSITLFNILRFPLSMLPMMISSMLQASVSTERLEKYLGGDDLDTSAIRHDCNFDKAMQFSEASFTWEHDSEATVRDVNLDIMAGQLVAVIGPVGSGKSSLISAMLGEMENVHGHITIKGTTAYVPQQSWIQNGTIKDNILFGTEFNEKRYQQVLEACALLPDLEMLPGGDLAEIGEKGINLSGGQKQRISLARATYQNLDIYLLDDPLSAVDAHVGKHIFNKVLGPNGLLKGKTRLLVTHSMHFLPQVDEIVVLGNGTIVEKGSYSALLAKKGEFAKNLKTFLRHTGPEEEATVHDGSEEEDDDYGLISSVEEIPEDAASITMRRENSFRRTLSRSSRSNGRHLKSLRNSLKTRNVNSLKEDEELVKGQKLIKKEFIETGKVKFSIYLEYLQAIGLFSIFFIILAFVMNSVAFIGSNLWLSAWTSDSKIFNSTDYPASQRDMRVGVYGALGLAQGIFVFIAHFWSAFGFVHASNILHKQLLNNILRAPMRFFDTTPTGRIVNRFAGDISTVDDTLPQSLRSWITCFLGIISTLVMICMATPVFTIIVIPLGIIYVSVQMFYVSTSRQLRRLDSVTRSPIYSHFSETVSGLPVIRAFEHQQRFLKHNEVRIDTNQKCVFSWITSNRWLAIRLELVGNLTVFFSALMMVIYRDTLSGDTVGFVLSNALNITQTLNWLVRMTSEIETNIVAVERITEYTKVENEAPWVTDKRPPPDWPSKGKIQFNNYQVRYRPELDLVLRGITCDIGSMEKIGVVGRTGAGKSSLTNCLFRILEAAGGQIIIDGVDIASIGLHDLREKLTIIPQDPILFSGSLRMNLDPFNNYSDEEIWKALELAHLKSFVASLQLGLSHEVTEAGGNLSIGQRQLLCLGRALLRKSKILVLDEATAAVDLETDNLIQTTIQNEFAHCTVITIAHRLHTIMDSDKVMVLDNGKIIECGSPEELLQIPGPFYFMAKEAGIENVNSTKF

Row | pIC50 [2] | SMILES | Activity [1]
1 | 5.48 | CCCCC/C=C\C\C=C/C=C/C=C/[C@@H](SC[C@@H](NC(=O)CC[C@H](N)C(=O)O)C(=O)NCC(=O)O)[C@@H](O)CCCC(=O)O [LEUKOTRIEN C4] | 
2 | 5.40 | CN(C)C(=O)CCSC(SCCC(=O)O)c1cccc(/C=C/c2ccc3ccc(Cl)cc3n2)c1 (centres undefined) [MK-571] | 

Row | SMILES | pIC50 [2] | Activity [1]
3 | C[C@@H]1Cc2c(Cl)cc(C(=O)N[C@@H](Cc3ccccc3)C(=O)O)c(O)c2C(=O)O1 [3R14S-OCHRATOXIN A] | 4.24 | substrate [+]
